# Experimental data from patent US9326972B2, “Use of phenylmethimazoles, methimazole derivatives, and tautomeric cyclic thiones for the treatment of autoimmune/inflammatory diseases associated with toll-like receptor overexpression” (Ohio University, priority 2004, dated 2016).
# Legend:
# [1] = Solubility and storage stability of C10 solutions; format: physicochemical
# From the text: In the studies described in Table 5, C10 was formulated in DMSO and administered i.p. DMSO was used due to the low solubility of C10 in aqueous environments but can have well documented independent effects (M. S. Ivanovic, et al., Toxicology Letters, 147:153-159 (2004))]. […] To circumvent these issues, we used a proprietary cyclodextrin (CD) excipient that is approved by the FDA for use in humans to make an aqueous formulation of C10. […] In a test using LPS-induced toxic shock, oral excipient-solubilized C10, stored in diluted form at 4° C. for 8 weeks, was as effective in preventing death as was freshly made C10 i.p. in DMSO at the same 1 mg/kg dose.
# ISRE = test: ISRE-Luc reporter gene in FRTL-5 thyrocytes; format: cell-based, rat
# Experimental: Cells were co-transfected with ISRE-Luc and pRLTk-Int and then treated without (none) or with Poly I:C (100 μg/ml), LPS (100 ng/ml), IL-1β (10 ng/ml) TNF-α (25 ng/ml), IFN-β (100 U/ml) or IFN-γ (1000 U/ml) in the presence of DMSO (−) or C10 for 6 hours. Data were obtained using the Dual Luciferase Assay system. The effect on the ISRE element is not duplicated by an NF-κB reporter plasmid despite the similarity of the two elements: ([…])5 (SEQ ID NO:3) vs. ([…])5 (SEQ ID NO:4), respectively. Data are representative of multiple experiments.
# Plasmids for Reporter Gene Assays. Human IRF-3 was amplified from human cDNA and cloned into pCR 2.1 by the TOPO/TA (Invitrogen, Carlsbad, Calif.) cloning method, and then sequenced. IRF-3 was then excised by EcoRI digestion and subcloned into pCMV-BD (Stratagene, La Jolla, Calif.) for use in transactivation assays. To construct IFN-β-luc the human IFN-β promoter sequence was amplified from human genomic DNA (Clontech, Palo Alto, Calif.)) using Ex Taq™ Polymerase (Takara, Madison, Wis.). The PCR fragment contained human IFN-β promoter sequence from −125 to +34 relative to the transcription start site (+1) and incorporated KpnI and XhoI restriction sites at the 5′ and 3′ ends, respectively. The primers were as follows: hIFN-β (−125) KpnI (5′-[…]-3′) (SEQ ID NO:9) and hIFN-β (+34) XhoI (5′-[…]-3′). […]
# TLR3 = TLR3 mRNA in NPA human thyrocytes (Northern); format: cell-based; details: 0.5 mM C10
# Experimental: In order to confirm the presence and functionality of TLR3 in human thyrocytes, we evaluated TLR3 expression in cultured NPA human thyrocytes. NPA thyrocytes are from a papillary carcinoma but are known to retain functional properties of normal thyrocytes. Transfection with dsRNA [Poly (I:C)], but not transfection by dsDNA or incubation with Poly (I:C), was able to increase TLR3 mRNA levels in Northern blots. The dsRNA, but not the dsDNA transfection, could also increase IFN-β mRNA levels, measured as before with PCR. Additionally, as was the case for FRTL-5 cells and dsRNA transfection, IFN-β increased PKR mRNA levels as well as TLR3 RNA levels.
# NPA-87 cells are a continuous line of human thyrocytes derived from papillary carcinoma cells. They retain several functional responses including TSH-increased cAMP signaling (J. Xu, et al., J Clin Endocrinol Metab, 88:4990-6 (2003)). They were kindly provided by Dr. Guy Julliard (University of California, Los Angeles, Calif.) and grown in RPMI 1640 medium supplemented with 2 g/liter sodium bicarbonate, 0.14 mM nonessential amino acids, 1.4 mM sodium pyruvate, and 10% fetal bovine serum, pH 7.2.
# RNA Isolation and Northern Analysis.
# IRF-3 = IRF-3 transactivation cis reporter in FRTL-5 thyrocytes; format: cell-based, rat; details: FRTL-5, 6 hours, 0.5 mM C-10
# Experimental: FIG. 5. Phenylmethimazole (CIO) and Methimazole (MMI) inhibit the ability of Poly (I:C), lipopolysaccharide (LPS) and IL-1β to increase IFN-β gene expression (Top Left) and IRF-3 transactivation (Top Right) in FRTL-5 thyrocytes. (Top Left) Cells were co-transfected with IFNβ-Luc and control vector (pRLTk-Int), then treated with or without (−) Poly (I:C) (100 μg/ml), LPS (100 ng/ml), or IL-1β (10 ng/ml) in the presence of the vehicle (DMSO) alone (−), C10, or MMI for 6 hours. Data was obtained with the Dual Luciferase Assay system. (Top Right) Cells were co-transfected with Gal4 DBD/IRF-3 and Gal4-Luc then treated with nothing (−), poly (I:C), LPS, or IL-1β as in (Top Left) in the presence of DMSO or C10 for 6 hours. Data was obtained by Luciferase assay. Also shown is a graphic depiction (Bottom) of how the cis reporting system is working. Data are representative of multiple experiments.
# We measured the ability of C10 to inhibit IRF-3 transactivation activity in FRTL-5 thyrocytes, using the IRF-3 cis reporter system (FIG. 5, bottom).
# Plasmids for Reporter Gene Assays. Human IRF-3 was amplified from human cDNA and cloned into pCR 2.1 by the TOPO/TA (Invitrogen, Carlsbad, Calif.) cloning method, and then sequenced. IRF-3 was then excised by EcoRI digestion and subcloned into pCMV-BD (Stratagene, La Jolla, Calif.) for use in transactivation assays. […]
smiles,measurement,setting,value
"Cn1c(-c2ccccc2)cnc1S [Compound C10, 5-Phenylmethimazole]",solubility in aqueous environments,[1],low
same,stability of C10 solubilized in DMSO and diluted to a working concentration,[1],not stable for prolonged periods of time
same,activity of C10 diluted in DMSO and stored in diluted form,"[1]; stored at either 4° C. or −70° C., in vitro or in vivo",inactive
same,"ISRE activation by poly (I:C), LPS, IL-1β, TNF-α, IFN-β and IFN-γ (ISRE-Luc)","ISRE; FRTL-5, 6 hours",effective inhibitor
same,"ISRE-Luc Relative Luciferase Activity % of Control (±15%), +C10","ISRE; FRTL-5, Ligand None, 6 hours",100 % of Control
same,dsRNA transfection- or IFN-β-increased TLR3 mRNA levels,TLR3,decreased
same,"IRF-3 transactivation by poly (I:C), LPS, or IL-1β",IRF-3,inhibited
